ChEMBL document CHEMBL3875164, “Pyrazole-based potent inhibitors of GGT1: Synthesis, biological evaluation, and molecular docking studies” (Eur J Med Chem, 2016)

Tests used:
[1] = Inhibition of recombinant FT (unknown origin) using FPP as substrate preincubated for 5 mins followed by protein addition measured over 20 mins by fluorescence assay; design: species or system Homo sapiens
[2] = Cytotoxicity against human MDA-MB-231 cells assessed as cell growth inhibition after 48 hrs by MTT assay method; format: functional, cell-based; details: MDA-MB-231, 48 h

SMILES	IC50 [1] [µM]	IC50 [2] [µM]
COc1ccc(C[C@H](NC(=O)CCCOc2c(CCSC)c(-c3cccnc3)nn2-c2ccc(Cl)c(Cl)c2)C(N)=O)cc1	> 100	33.2
COC(=O)[C@H](CCSC)NC(=O)c1ccc(NC[C@@H](N)CS)cc1-c1ccccc1	1.1	–
CSCCc1c(-c2cccnc2)nn(-c2ccc(Cl)c(Cl)c2)c1OCCCNC(=O)[C@H](Cc1ccncc1)NS(C)(=O)=O	> 100	26.5
COc1ccc(C[C@H](NS(C)(=O)=O)C(=O)NCCCOc2c(CCSC)c(-c3cccnc3)nn2-c2ccc(Cl)c(Cl)c2)cc1	> 100	> 50
CSCCc1c(-c2cccnc2)nn(-c2ccc(Cl)c(Cl)c2)c1OCCCC(=O)N[C@@H](Cc1ccncc1)C(N)=O	> 100	> 50
CSCCc1c(-c2cccnc2)nn(-c2ccc(Cl)c(Cl)c2)c1OCCCC(=O)N[C@@H](Cc1ccccc1)C(N)=O	–	23
CSCCc1c(-c2cccnc2)nn(-c2ccc(Cl)c(Cl)c2)c1OCCCNC(=O)[C@H](Cc1ccccc1)NS(C)(=O)=O	> 100	> 50
CSCCc1c(-c2cccnc2)nn(-c2ccc(Cl)c(Cl)c2)c1OCCCNC(=O)[C@H](Cc1ccc(F)cc1)NS(C)(=O)=O	> 100	> 50
COc1ccc(C[C@H](NC(=O)OC(C)(C)C)C(=O)NCCCOc2c(CCSC)c(-c3cccnc3)nn2-c2ccc(Cl)c(Cl)c2)cc1	> 100	> 50
CSCCc1c(-c2cccnc2)nn(-c2ccc(Cl)c(Cl)c2)c1OCCCC(=O)N[C@@H](Cc1ccc(F)cc1)C(N)=O	> 100	7.6

Now from value to molecule, other results behind:

IC50 [1] [µM]	SMILES	IC50 [2] [µM]
> 100	CSCCc1c(-c2cccnc2)nn(-c2ccc(Cl)c(Cl)c2)c1OCCCNC(=O)[C@H](Cc1ccc(F)cc1)NC(C)=O	13.2
> 100	CSCCc1c(-c2cccnc2)nn(-c2ccc(Cl)c(Cl)c2)c1OCCCC(=O)N[C@@H](Cc1cccnc1)C(N)=O	29.4
> 100	CSCCc1c(-c2cccnc2)nn(-c2ccc(Cl)c(Cl)c2)c1OCCCNC(=O)[C@H](Cc1ccccc1)NC(C)=O	15.4
> 100	CSCCc1c(-c2cccnc2)nn(-c2ccc(Cl)c(Cl)c2)c1OCCCNC(=O)[C@H](Cc1ccncc1)NC(C)=O	34.9
> 100	COc1ccc(C[C@H](NC(C)=O)C(=O)NCCCOc2c(CCSC)c(-c3cccnc3)nn2-c2ccc(Cl)c(Cl)c2)cc1	14.8
> 100	CSCCc1c(-c2cccnc2)nn(-c2ccc(Cl)c(Cl)c2)c1OCCCNC(=O)[C@H](Cc1cccnc1)NS(C)(=O)=O	> 50
> 100	CSCCc1c(-c2cccnc2)nn(-c2ccc(Cl)c(Cl)c2)c1OCCCNC(=O)[C@H](Cc1cccnc1)NC(C)=O	52.3
